Data on 2 molecules can be found in patent US20220402982A1, “POLYPEPTIDE FRAGMENT D (MP-D) AND USE THEREOF” (SHANGHAI LONGXIN BIOMEDICAL TECHNOLOGY CO., LTD., priority 2021, published 2022).

Test [1] deals with DSS-induced IBD in mice. Put plainly: Colonic histopathological evaluation (HE staining, scoring) in DSS-induced acute IBD mouse model. It is filed as in vivo, male C57BL6 mice. Conditions: 50 μg/kg intragastrically, 7 days pre-administration, then daily together with 2.5 wt % DSS; x±SD; model group 7.4±0.6, blank control 0.0±0.0. The protocol: (§1) The administration of a DSS solution with a specified concentration to mice can induce an acute IBD model characterized by diarrhea, hematochezia, ulcer, and granulocyte infiltration. Mice were randomly grouped according to body weights of the mice. 40 healthy male C57BL6 mice were divided into four groups each with 10 mice:
(§2) blank control group: the mice were each intragastrically administered with water every day at a volume of 0.4 mL/20 g;
(§3) model group: the mice were each intragastrically administered with a DSS aqueous solution of a mass fraction of 2.5 wt % consecutively for 7 days, where the DSS aqueous solution was freshly prepared and changed every day; […]
(§4) A mouse colon between an anus end to an ileocecal end was integrally collected, and a length of the colon was measured; and the colon was dissected along a longitudinal axis, feces therein was rinsed off, and then the colon was stored in 4% […] or frozen at −80° C. […]
Experimental data in the above experimental method were expressed as (x±SD), the GraphPad Prism (ver. 8.0, GraphPad Software Inc., San Diego, Calif., USA) was used to plot a chart, the SPSS Program (ver. 25.0, SPSS Inc., Chicago, Ill., USA) was used for statistical test, and one-way ANOVA or independent two-sample t-test were used for significance test when the normality and homogeneity of variances were met. […]

Test [2] concerns DSS-induced IBD in mice. Put plainly: Colon length in DSS-induced acute IBD mouse model. It is filed as in vivo, male C57BL6 mice. The note with it: 50 μg/kg intragastrically, 7 days pre-administration, then daily together with 2.5 wt % DSS; x±SD; model group 5.3±0.6, blank control 9.4±0.6; in cm (unit assumed). The protocol: as §1, §2, §3
The body weight changes of mice in each group were recorded every day to determine whether the acute IBD mouse model was successfully established.
as §4

As for “THTVGSYFQVQNGYVGAFSRALGNNEYAMNS (THTVGSYFXVQNGYVGAFSXALGNXEYAMNS; Sequence is synthesized; (9)..(9) Xaa can be Tyr, Val, Gly, Ser, Gln, or absent; (20)..(20) Xaa can be Ser, Gln, Glu, Tyr, Arg, or absent; (25)..(25) Xaa can be Asn, Thr, Ser, Pro, Leu, or absent) [MP-D]”, the colonic histopathologic score in the test with DSS-induced IBD in mice [1] is 1.3±0.6. The molecule also registered a colon length with DSS-induced IBD in mice [2] of 8.0±0.9.

B1: THTVGSYFSVQNGYVGAFSQALGNSEYAMNSPLGSLDGRTTMYNLLGVKYLFAREDQLKKQ (peptide, listed as Lactobacillus plantarum)
chain: THTVGSYFSVQNGYVGAFSQALGNSEYAMNSPLGSLDGRTTMYNLLGVKYLFAREDQLKKQ
notes: positive control
B1: the colonic histopathologic score in the test on DSS-induced IBD in mice [1] is given as 2.4±0.8. Further, the colon length in the test with DSS-induced IBD in mice [2] came out at 7.9±0.5.
